Test results taken from ChEMBL document CHEMBL1159372, “Two flavone C-glycosides from the style of Zea mays with glycation inhibitory activity” (J Nat Prod, 2003).

Test: Inhibition of advanced glycation end product formation at 1 mM after 7 days by fluorescence assay
Format: physicochemical
Details: 168 h, 1000 µM

Row | Compound | inhibition (INH) [%]
1 | N=C(N)NN [PIMAGEDINE] | 60.5
2 | COc1cc(-c2cc(=O)c3c(O)c([C@H]4C[C@@H](O)[C@H](O)[C@H](C)O4)c(O)cc3o2)ccc1O | 64.2
3 | COc1cc(-c2cc(=O)c3c(O)c([C@H]4C[C@@H](O)[C@H](O)[C@H](C)O4)c(O[C@@H]4O[C@H](CO)[C@@H](O)[C@H](O)[C@H]4O)cc3o2)ccc1O | 53
